Several values for one entry are separate records, joined by “and”; a condition that tells them apart may be missing. Equal entries are not always repeated. Where two headings read alike, the source gives them in different places.
Tests used:
MC-26 tumor [1] = conditions: for overall survival rate: day 50
Description: Starting on day 7 after tumor cell inoculation, mice were randomly divided into eight groups as follow:
Group 1: control; control chow; 0.9% NaCl injected intraperitoneally (IP) on days 9, 11, 15, 18, 23, and 28; and 5% IP glucose on days 8, 12, 15, 19, 22, and 25.
Group 4: irinotecan alone; control chow; irinotecan 30 mg/kg on days 8, 12, 15, 19, 22, and 25; and 0.9% NaCl on days 9, 11, 15, 18, 23, and 28.
The date and number of animal in each group were recorded for survival analysis.

[2] = meta-analysis (Lewis et al., 2002); cited from earlier work
MC-26 cell PGE2 levels = assay: Prostaglandin E2 ELISA, MC-26 conditioned medium; assay type: cell-based, mouse; conditions: MC-26 cells, 1000 μM, 24 h
Description: (§1) The transplantable mouse CRC cell line MC-26 (Singh et al., 1986) was obtained from Dr. K. K. Tanabe (Massachusetts General Hospital, Boston, Mass.), and the human colorectal adenocarcinoma cell line HT 29 was obtained from ATCC. MC-26 cells and HT-29 were maintained in Dulbecco's modified Eagle's medium (DMEM; Life Technologies, Inc, Gaithersburg, Md.) and McCoy's 5A medium, respectively, supplemented with 10% fetal calf sertum plus antibiotics at 37° C. in a humidified atmosphere of 95% air/5% C02. Human umbilical vein endothelial cells (HUVECs) was purchased from Canibrex (Walkersville, Md.) and maintained in EGM-2 medium (Cambrex).
(§2) Prostaglandin E2 (PGE2), the major metabolite of arachidonic acid metabolism, was measured by ELISA (Cayman Chemical, Ami Arbor, Mich.), using conditional cell culture medium, according to the protocol provided by manufacturer. Measurements were made in triplicate in separate experiments.

HT-29 cells PGE2 levels = assay: Prostaglandin E2 ELISA, HT-29 conditioned medium; assay type: cell-based, human; conditions: 24 h
Description: as §1, §2

MC-26 cells = assay: In vitro cell proliferation assay (MTT), MC-26; assay type: cell-based, mouse; conditions: 72 h
Description: as §1
In Vitro cell proliferation was assessed using a CellTiter 96®AQ One Solution Cell Proliferation Assay kit (Promega). 1-3×10^4 cells/ml were plated in 96-well microtiter plates and incubated overnight. […]

HT-29 cells = assay: In vitro cell proliferation assay (MTT), HT-29; assay type: cell-based, human; conditions: HT-29, 1000 μM, 72 h
Description: as §1
(§3) In Vitro cell proliferation was assessed using a CellTiter 96®AQ One Solution Cell Proliferation Assay kit (Promega). 1-3×10^4 cells/ml were plated in 96-well microtiter plates and incubated overnight. […] 20 μl of MTS tetrazolium solution were added to each well, and the cells were further incubated at 37° C. for 1 h, at which time the reactions were stopped by the addition of 10% SDS. The absorbance at wavelength 490 nm was measured using an EX800 microplate reader (Bio-Tek, Highland, Wis.).

HUVEC = HUVEC cell proliferation (MTT); assay type: cell-based, human; conditions: 1000 μM, 24 h
Description: as §1, §3

HUVECs = assay: In vitro angiogenesis (tube formation) assay; assay type: cell-based, human; conditions: 1000 μM
Description: An in vitro anigiogenesis assay was performed according to the protocol provided by manufacturer (Chemicon, Temecula, Calif.) and described previously ([…] et al., 2004; […] et al., 2004). […] Microscopic digital images were taken, and cumulative tube length was measured using SpotTM3.5.6.

[3] = Plasma ibuprofen concentration in mice fed ibuprofen chow; assay type: in vivo, mouse; conditions: mice fed chow containing 1360 mg/kg; blood on days 7 and 14
Description: Ibuprofen was purchased from Sigma, and pellet-formed chow containing ibuprofen was prepared by Harlan Teklad (Madison, Wis.). Blood was drawn on day 7 and 14 by tail bleeding, and serum was separated from the whole blood and frozen at −70° C. until analysis.
The plasma samples were analyzed by a quantified liquid chromatography-tandem mass spectrometry (LC/MS/MS) method. Sample preparation was performed using protein precipitation.
A […] aliquot of internal standard working solution (3000 ng/mL of Phenacetin I.S. in acetonitrile) was added to 25 μL of plasma. Each sample was then vortexed and centrifuged for 15 min at a speed of 13,000 rpm at 4° C.
After centrifugation, 150 μL of the supernatant was transferred into an HPLC vial, and aliquots of 5 μL were injected using a Perkin Elmer 200 Series autosampler (Perkin Elmer: Norwalk Conn.). The loading and analytical columns were a Zorbax Extend C18 (4.6×12.5 mm, 5 μdp; Agilent Technologies: Palo Alto, Calif.) and a Waters Xterra C 18 (3.9×20 mm, 3.5 μdp; Waters Corporation: Milfaird, Mass.), respectively. […] The column effluent was analyzed by selected reaction monitoring using a triple quadruple mass spectrometer (Micromass Quattro Ultima; Manchester, UK) equipped with an electrospray ion source operating in negative ion mode.

[4] = Gross necroscopic examination for GI mucosal injury; assay type: in vivo, mouse; conditions: mice consuming chow containing ibuprofen
MC-26 liver metastasis = assay: Experimental liver metastasis model (subsplenic MC-26 injection); assay type: in vivo, mouse; conditions: 1360 mg/kg chow for 14 days
Description: The incidence and extent of liver metastasis were then recorded.

[5] = tested on: CD31 positive microvessels; assay: CD31 microvessel immunohistochemistry of tumor sections; assay type: in vivo, mouse; conditions: P=0.059
Description: To assess anigiogenesis in tumor tissues, frozen sections were made and microvessels were stained with anti-mouse CD31 mnonocolonal antibodies (BD transduction laboratories). The specimens were incubated with secondary antibody for 1 h at 37° C. and stained by the avidin-biotin peroxide complex (ABC) method using an ABC staining kit (Santa Cruz Biotech, Santa Cruz, Calif.). They were visualized by 3,3′-diammobenzidme (DAB) and counlterstained with hematoxyhn.

[6] = cited from earlier work
MC-26 tumor [7] = assay: Subcutaneous MC-26 tumor model, single agent
HT-29 tumor = assay: HT-29 human xenograft CRC model in nude mice; conditions: throughout the period of investigation

SMILES: O=c1[nH]cc(F)c(=O)[nH]1 [5-FU, Fluorouracil]
- overall survival rate (MC-26 tumor [1]; 5-FU given with leucovorin): 30%
- tumor volume (MC-26 tumor [1]; treatment day 7 to 28, 5-FU given with leucovorin, control 1491.3±862): 499±234 mm^3

SMILES: CCc1c2c(nc3ccc(OC(=O)N4CCC(N5CCCCC5)CC4)cc13)-c1cc3c(c(=O)n1C2)COC(=O)[C@]3(O)CC [CPT-11, Irinotecan]
- average body weight (MC-26 tumor [1]; day 28, average over the named groups, control 19.65±1.24): 23.1 ± 1.72 g
- overall survival rate (MC-26 tumor [1]; 5-FU given with leucovorin): 80%
- survival compared to control mice and other regimens (MC-26 tumor [1]; mouse, in vivo): significantly prolonged

SMILES: O=C(O)Cc1ccccc1Nc1c(Cl)cccc1Cl [diclofenac]
- odds ratio, serious upper GI bleeding [2]: 4.9

SMILES: CC(C)Cc1ccc(C(C)C(=O)O)cc1 (stereo not drawn) [ibuprofen]
- PGE2 levels diminished compared to control (MC-26 cell PGE2 levels): 70.1%
- PGE2 level (MC-26 cell PGE2 levels; control 268.5): 80.0 pg/mL
- PGE2 levels diminished compared to control (HT-29 cells PGE2 levels): 81.1%
- PGE2 level (HT-29 cells PGE2 levels; control 95.6 pg/mL): 18 pg/mL
- decrease in MC-26 cell proliferation (MC-26 cells; 125 μM): 1.3%
- decrease in MC-26 cell proliferation (MC-26 cells; 250 μM): 5.8%
- decrease in MC-26 cell proliferation (MC-26 cells; 500 μM): 11.3%
- decrease in MC-26 cell proliferation (MC-26 cells; 1000 μM): 39.8%
- MTT levels diminished compared to control (HT-29 cells): 26.7%
- MTT levels diminished compared to control (HUVEC): approximately 80%
- reduction in tube length (HUVECs; 6 h): 40%
- tube length (HUVECs; 6 h, control 155.4±21.3): 94.0±24.9 μm
- reduction in tube length (HUVECs; 24 h): 88%
- tube length (HUVECs; 24 h, control 76.2±13.5): 9.40±6.95 μm
- plasma ibuprofen concentration [3]: ~18,760±7,270 ng/ml and ~20,978±5,966 ng/ml
- gastroduodenal / GI mucosal injury [4]: no evidence of gastroduodenal mucosal injury
- gastroduodenal / GI mucosal injury ([4]; listed as Ibuprofen): No GI mucosal injury
- liver metastases vs control (MC-26 liver metastasis): more prevalent and larger in the control group
- liver metastases vs control (MC-26 liver metastasis; listed as IB): Fewer liver metastases
- reduction in number of microvessels [5]: ~30%
- plasma ibuprofen peak concentration ([6]; 300 mg capsule, fasting humans (Halsas et al., 1999)): approximately 27,000 ng/ml
- peak plasma concentration (Cmax) ([6]; healthy humans, long-term high-dose 14 mg/kg): 65,000 ng/ml
- Cmax ([6]; healthy humans, low dose 2.6 mg/kg): 15,800 ng/ml
- Cmax ([6]; healthy humans, moderate dose 7 mg/kg): 34,000 ng/ml
- peak plasma ibuprofen concentration ([6]; single dose of 300 mg, humans (Halsas et al., 1999)): ≥ 27,000 ng/mil
- tumor growth inhibited (MC-26 tumor [7]; chow containing 1360 ppm, summary over mouse and human CRC models): 40-82%
- average body weight (MC-26 tumor [7]; day 21, control 20.3±2.6): 24.1 ± 1.73 g
- body weight vs control (HT-29 tumor): no significant difference in body weight

SMILES: COc1ccc2cc([C@H](C)C(=O)O)ccc2c1 [naproxen]
- odds ratio, serious upper GI bleeding [2]: 9.1

SMILES: CN1C(C(=O)Nc2ccccn2)=C(O)c2ccccc2S1(=O)=O [piroxicam]
- odds ratio, serious upper GI bleeding [2]: 13.1
